Reference: patent publication US10052306B2 (LUC THERAPEUTICS, INC., priority 2013, dated 2018)

Legend:
NR1/NR2B [1] = molecular target: NR1/NR2B (Homo sapiens (Human), UniProt Q05586+Q13224); test: Cell assay: FDSS Ca2+ influx inhibition in HEK293 cells expressing NR1/NR2B; conditions: Binned Activity, HEK293 cells expressing NR1/NR2B, Ca2+ influx; binned NR2B NAM IC50;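 note: Fluo-8 Ca2+ signal read on Hamamatsu FDSS 6000 after glutamate, glycine and Ca2+ challenge following 10 min compound preincubation, end/baseline fluorescence ratio compared with MK801 control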
NR1/NR2B (Homo sapiens (Human), UniProt Q05586+Q13224), sequence (Q13224 27-1484, other chains not shown): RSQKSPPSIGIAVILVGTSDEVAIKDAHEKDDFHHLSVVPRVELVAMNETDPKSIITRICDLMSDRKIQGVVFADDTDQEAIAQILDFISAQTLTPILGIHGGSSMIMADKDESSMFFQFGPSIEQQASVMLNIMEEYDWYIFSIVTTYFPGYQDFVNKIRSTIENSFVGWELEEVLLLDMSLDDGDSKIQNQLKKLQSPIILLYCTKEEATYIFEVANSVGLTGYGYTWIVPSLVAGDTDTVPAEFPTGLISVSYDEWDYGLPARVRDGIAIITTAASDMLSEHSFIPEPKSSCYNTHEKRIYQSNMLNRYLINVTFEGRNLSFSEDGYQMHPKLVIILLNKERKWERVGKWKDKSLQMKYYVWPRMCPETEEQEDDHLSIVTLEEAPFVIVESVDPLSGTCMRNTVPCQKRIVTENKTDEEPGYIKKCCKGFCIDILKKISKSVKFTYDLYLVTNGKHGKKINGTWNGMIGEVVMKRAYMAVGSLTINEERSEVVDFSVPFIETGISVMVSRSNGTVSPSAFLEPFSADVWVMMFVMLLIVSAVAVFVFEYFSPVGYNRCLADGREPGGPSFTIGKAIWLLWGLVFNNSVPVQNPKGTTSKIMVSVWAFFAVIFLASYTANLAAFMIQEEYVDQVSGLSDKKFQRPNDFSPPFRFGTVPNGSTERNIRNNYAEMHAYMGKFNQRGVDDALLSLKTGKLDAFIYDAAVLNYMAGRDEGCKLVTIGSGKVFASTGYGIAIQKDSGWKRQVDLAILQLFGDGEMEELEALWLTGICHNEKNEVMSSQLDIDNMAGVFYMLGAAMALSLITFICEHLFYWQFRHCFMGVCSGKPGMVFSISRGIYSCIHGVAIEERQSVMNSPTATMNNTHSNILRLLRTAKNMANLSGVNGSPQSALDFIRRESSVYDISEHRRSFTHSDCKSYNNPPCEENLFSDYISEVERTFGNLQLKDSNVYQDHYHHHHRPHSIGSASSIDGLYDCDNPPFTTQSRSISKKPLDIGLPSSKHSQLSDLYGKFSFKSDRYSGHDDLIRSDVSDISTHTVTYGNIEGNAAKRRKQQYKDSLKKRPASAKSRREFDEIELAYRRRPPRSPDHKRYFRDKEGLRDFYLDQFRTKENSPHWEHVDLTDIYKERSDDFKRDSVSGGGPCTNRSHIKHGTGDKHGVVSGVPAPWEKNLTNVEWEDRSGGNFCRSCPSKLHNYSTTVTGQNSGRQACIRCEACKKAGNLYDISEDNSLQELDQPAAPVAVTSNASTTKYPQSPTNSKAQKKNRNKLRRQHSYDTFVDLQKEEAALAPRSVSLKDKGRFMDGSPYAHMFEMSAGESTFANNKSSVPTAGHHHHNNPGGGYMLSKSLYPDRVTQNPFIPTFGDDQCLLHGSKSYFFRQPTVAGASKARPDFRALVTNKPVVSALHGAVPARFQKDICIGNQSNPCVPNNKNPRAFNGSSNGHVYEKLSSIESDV

NR1/NR2B [2] = molecular target: NR1/NR2B (Homo sapiens (Human), UniProt Q13224); test: as above; conditions: read-out: NR2B NAM IC50; HEK293 cells expressing NR1/NR2B, Ca2+ influx
NR1/NR2B (Homo sapiens (Human), UniProt Q13224), sequence (Q13224 27-1484, other chains not shown): as above

Compound | IC50 (NR1/NR2B [1]) | IC50 (NR1/NR2B [2])
O=C(CN1C[C@H]2CC(Cc3ccccc3)C[C@H]2C1)c1ccc(O)cc1 (stereo partly drawn) [Example 295, 2-((3aR,6aS)-5-benzylhexahydrocyclo-penta[c]pyrrol-2(1H)-yl)-1-(4-hydroxyphenyl)ethanone] | < 0.1 µM | 0.0517 µM
O=C(CN1C[C@@H]2C[C@@](O)(Cc3ccccc3)C[C@@H]2C1)c1cccc(-c2ccc(O)cc2)c1 [Example 275, 2-((3aR,5r,6aS)-5-benzyl-5-hydroxyhexahydrocyclo-penta[c]pyrrol-2(1H)-yl)-1-(4′-hydroxy-[1,1′-biphenyl]-3-yl)ethanone] | > 10 µM | 10 µM
O=C(CN1C[C@@H]2C[C@@](O)(Cc3ccc(C(F)(F)F)cc3)C[C@@H]2C1)c1ccc(O)cc1 [Example 219, 2-[(3aR,5R,6aS)-5-hydroxy-5-{[4-(trifluoromethyl)phenyl]methyl}-octahydrocyclopenta[c]pyrrol-2-yl]-1-(4-hydroxyphenyl)ethan-1-one] | 0.1 to 1 µM | 0.125 µM
O=C(Cc1ccc(O)cc1)CN1C[C@@H]2C[C@@](O)(Cc3ccccc3)C[C@@H]2C1 [Example 145, 1-((3aR,5r,6aS)-5-benzyl-5-hydroxyhexahydrocyclo-penta[c]pyrrol-2(1H)-yl)-3-(4-hydroxyphenyl)propan-2-one] | > 10 µM | 10 µM
COc1cccc(-c2cccc(C(=O)CN3C[C@@H]4C[C@@](O)(Cc5ccccc5)C[C@@H]4C3)c2)c1 [Example 273, 2-((3aR,5r,6aS)-5-benzyl-5-hydroxyhexahydrocyclo-penta[c]pyrrol-2(1H)-yl)-1-(3′-methoxy-[1,1′-biphenyl]-3-yl)ethanone] | > 10 µM | 10 µM
O=C(CN1C[C@@H]2CC(O)(CCc3ccccc3)C[C@@H]2C1)c1ccc(-c2ccccc2)cc1 (some centres unmarked) [Example 269, 2-[5-hydroxy-5-(2-phenylethyl)-octahydrocyclopenta[c]pyrrol-2-yl]-1-(4-phenylphenyl)ethan-1-one] | > 10 µM | 10 µM
O=C(Nc1cccnc1)N1C[C@@H]2C[C@@](O)(c3ccccc3)C[C@@H]2C1 [Example 44] | > 10 µM | 10 µM
COc1ccc(-c2ccc(C(=O)CN3C[C@@H]4C[C@@](O)(Cc5ccccc5)C[C@@H]4C3)cc2)cc1 [Example 259, 2-((3aR,5r,6aS)-5-benzyl-5-hydroxyhexahydrocyclo-penta[c]pyrrol-2(1H)-yl)-1-(4′-methoxy-[1,1′-biphenyl]-4-yl)ethanone] | > 10 µM | 10 µM
COc1cccc(C[C@]2(O)C[C@H]3CN(CC(=O)c4ccc(O)cc4)C[C@H]3C2)c1 [Example 194, 2-((3aR,5r,6aS)-5-hydroxy-5-(3-meth-oxybenzyl)hexahydro-cyclopenta[c]pyrrol-2(1H)-yl)-1-(4-hydroxyphenyl)ethanone] | < 0.1 µM | 0.0981 µM
O=C(CN1C[C@@H]2C[C@@](O)(c3ccccc3)C[C@@H]2C1)c1cccc(F)c1 [Example 61, 1-(3-fluorophenyl)-2-{5-hydroxy-5-phenyl-octahydrocyclopenta[c]pyrrol-2-yl}ethan-1-one] | > 10 µM | 10 µM
O=C(CN1C[C@@H]2CN(Cc3ccccc3)C[C@@H]2C1)c1ccc(O)cc1 [Example 326, 2-(5-benzylhexahydropyrrolo [3,4-c]pyrrol-2(1H)-yl)-1-(4-hydroxy-phenyl)ethanone] | 0.1 to 1 µM | 0.682 µM
Cc1cccc(N2C[C@@H]3C[C@@](O)(c4ccccc4)C[C@@H]3C2)n1 [Example 85, 2-(6-methylpyridin-2-yl)-5-phenyl-octahydrocyclopenta[c] pyrrol-5-ol] | > 10 µM | 10 µM
O=C(CN1C[C@@H]2CN(Cc3ccccc3)C[C@@H]2C1)c1ccc(O)cn1 [Example 328, 2-(5-benzylhexahydropyrrolo [3,4-c]pyrrol-2(1H)-yl)-1-(5-hydroxypyridin-2-yl)ethanone] | > 10 µM | 10 µM
O=C(CN1C[C@@H]2C[C@@](O)(Cc3ccccc3)C[C@@H]2C1)c1ccc(-c2ccc(F)cc2)cc1 [Example 262, 2-((3aR,5r,6aS)-5-benzyl-5-hydroxyhexahydrocyclo-penta[c]pyrrol-2(1H)-yl)-1-(4′-fluoro-[1,1′-biphenyl]-4-yl)ethanone] | > 10 µM | 10 µM
C[C@@H](NC(=O)N1C[C@H]2C[C@@H](c3ccccc3)C[C@H]2C1)c1ccc(Cl)cc1 [Example 113, N-[(1R)-1-(4-chlorophenyl)ethyl]-5-phenyl-octahydrocyclopenta[c] pyrrole-2-carboxamide] | > 10 µM | 10 µM
O=C(CN1CC2(C1)CC(O)(Cc1ccccc1)C2)c1ccc(O)cc1 [Example 342, 2-(6-benzyl-6-hydroxy-2-azspiro[3.3]heptan-2-yl)-1-(4-hydroxyphenyl)ethanone] | 1 to 10 µM | 2.67 µM

Compound | IC50 (NR1/NR2B [1]) | IC50 (NR1/NR2B [2])
CC(C)(C)c1ccc([C@]2(O)C[C@H]3CN(c4ccccn4)C[C@H]3C2)cc1 [Example 88, 5-(4-tert-butylphenyl)-2-(pyridin-2-yl)-octahydrocyclopenta[c] pyrrol-5-ol] | > 10 µM | 10 µM
COc1ccc(C)cc1NC(=O)N1C[C@@H]2C[C@@](O)(Cc3ccccc3)C[C@@H]2C1 [Example 124, (3aR,5r,6aS)-5-benzyl-5-hydroxy-N-(2-methoxy-5-methylphenyl)hexahydro-cyclopenta[c]pyrrole-2(1H)-carboxamide] | > 10 µM | 10 µM
O=C(CN1C[C@@H]2C[C@@](O)(Cc3ccccc3)C[C@@H]2C1)c1ccc(O)cn1 [Example 140, 2-((3aR,5r,6S)-5-benzyl-5-hydroxyhexahydrocyclo-penta[c]pyrrol-2(1H)-yl)-1-(5-hydroxypyridin-2-yl)ethanone] | 1 to 10 µM | 6.94 µM
O=C(CN1C[C@@H]2C[C@@](O)(Cc3ccccc3)C[C@@H]2C1)c1ccc(-c2cccc(F)c2)cc1 [Example 261, 2-((3aR,5r,6aS)-5-benzyl-5-hydroxyhexahydrocyclo-penta[c]pyrrol-2(1H)-yl)-1-(3′-fluoro-[1,1′-biphenyl]-4-yl)ethanone] | > 10 µM | 10 µM
O=C(CN1C[C@@H]2C[C@@](O)(Cc3cccs3)C[C@@H]2C1)c1ccc(O)c(F)c1 [Example 220, 1-(3-fluoro-4-hydroxyphenyl)-2-(5-hydroxy-5-(thiophen-2-ylmethyl)hexahydro-cyclopenta[c]pyrrol-2(1H)-yl)ethanone] | 0.1 to 1 µM | 0.111 µM
Oc1ccc([C@@H](O)CN2C[C@@H]3C[C@@](O)(Cc4ccccc4)C[C@@H]3C2)nc1 [Example 1646, (3aR,5S,6aS)-5-benzyl-2-((S)-2-hydroxy-2-(5-hydroxypyridin-2-yl)ethyl)octahydrocyclo-penta[c]pyrrol-5-ol] | < 0.1 µM | 0.0381 µM
O=C(CN1C[C@@H]2C[C@@](O)(Cc3ccccc3Cl)C[C@@H]2C1)c1ccc(O)cn1 [Example 234, 2-((3aR,5r,6aS)-5-(2-chlorobenzyl)-5-hydroxyhexahydrocyclo-penta[c]pyrrol-2(1H)-yl)-1(5-hydroxypyridin-2-yl)ethanone] | 1 to 10 µM | 1.99 µM
O=C(CN1C[C@@H]2C[C@@](O)(Cc3ccc(F)c(F)c3)C[C@@H]2C1)c1ccc(O)cc1 [Example 252, 2-((3aR,5r,6aS)-5-(3,4-difluorobenzyl)-5-hydroxyhexahydrocyclo-penta[c]pyrrol-2(1H)-yl)-1-(4-hydroxyphenyl)ethanone] | < 0.1 µM | 0.0853 µM
O=C(CN1C[C@@H]2C[C@@](F)(Cc3ccccc3)C[C@@H]2C1)c1ccc(O)cc1 [Example 312] | < 0.1 µM | 0.093 µM
CS(=O)(=O)Nc1ccc(C(=O)CN2C[C@@H]3C[C@@](O)(Cc4ccccc4)C[C@@H]3C2)nc1 [Example 235, N-(6-(2-((3aR,5r,6aS)-5-benzyl-5-hydroxyhexahydrocyclo-penta[c]pyrrol-2(1H)-yl)acetyl)pyridin-3-yl)methanesulfonamide] | > 10 µM | 10 µM
Cc1cccc(-c2ccc(C(=O)CN3C[C@@H]4C[C@@](O)(Cc5ccccc5)C[C@@H]4C3)cc2)c1 [Example 264, 2-((3aR,5r,6aS)-5-benzyl-5-hydroxyhexahydrocyclo-penta[c]pyrrol-2(1H)-yl)-1-(3′-methyl-[1,1′-biphenyl]-4-yl)ethanone] | > 10 µM | 10 µM
O=C(CN1C[C@@H]2C[C@@](O)(Cc3ccccc3)C[C@@H]2C1)c1ccc(-c2ccccc2)cc1 [Example 258, 1-([1,1′-biphenyl]-4-yl)-2-((3aR,5r,6aS)-5-benzyl-5-hydroxyhexahydrocyclo-penta[c]pyrrol-2(1H)-yl)ethanone] | > 10 µM | 10 µM
Oc1ccc([C@H](O)CN2C[C@@H]3C[C@@](O)(Cc4ccc(F)cc4)C[C@@H]3C2)nc1 [Example 256, (3aR,5R,6aS)-5-(4-fluorobenzyl)-2-((R)-2-hydroxy-2-(5-hydroxypyridin-2-yl)ethyl)octahydrocyclo-penta[c]pyrrol-5-ol] | < 0.1 µM | 0.0317 µM
Oc1ccc([C@H](O)CN2C[C@@H]3C[C@@](O)(Cc4ccccc4)C[C@@H]3C2)cc1F [Example 156, (3aR,5S,6aS)-5-benzyl-2-((S)-2-(3-fluoro-4-hydroxyphenyl)-2-hydroxyethyl)octahydro-cyclopenta[c]pyrrol-5-ol] | < 0.1 µM | 0.0305 µM
O=C(Nc1ccc(F)cc1)N1C[C@@H]2C[C@@](O)(c3ccccc3)C[C@@H]2C1 [Example 6] | > 10 µM | 10 µM
